Reference: ChEMBL document CHEMBL3734705, “Synthesis and in vitro cytotoxicity of novel C-12 substituted-14-deoxy-andrographolide derivatives as potent anti-cancer agents” (2015)
Active and inactive are the calls of the source. The rule behind the calls is not given here.

Legend:
[1] = Cytotoxicity against human RXF393 cells assessed as growth level at 10 uM after 48 hrs by SRB assay; assay type: functional, RXF 393
[2] = tested on: NCI-H226; test: Cytotoxicity against human NCI-H226 cells assessed as growth inhibition at 10 uM after 48 hrs by SRB assay; assay type: functional; details: NCI-H226, 48 h, read-out: GI
[3] = Cytotoxicity against human OVCAR3 cells assessed as growth level at 10 uM after 48 hrs by SRB assay; assay type: functional, OVCAR-3
[4] = tested on: MCF7; test: Cytotoxicity against human MCF7 cells assessed as growth inhibition at 10 uM after 48 hrs by SRB assay; assay type: functional; details: MCF7, 48 h, read-out: GI
[5] = Cytotoxicity against human IGROV1 cells assessed as growth inhibition at 10 uM after 48 hrs by SRB assay; assay type: functional; details: IGROV-1, 48 h, read-out: GI
[6] = Cytotoxicity against human TK10 cells assessed as growth level at 10 uM after 48 hrs by SRB assay; assay type: functional, TK-10
[7] = Cytotoxicity against human HCT15 cells assessed as growth level at 10 uM after 48 hrs by SRB assay; assay type: functional, HCT-15
[8] = tested on: NCI-H460; test: Cytotoxicity against human NCI-H460 cells assessed as growth level at 10 uM after 48 hrs by SRB assay; assay type: functional
[9] = Cytotoxicity against human UACC257 cells assessed as growth level at 10 uM after 48 hrs by SRB assay; assay type: functional, UACC-257
[10] = Cytotoxicity against human SF268 cells assessed as growth level at 10 uM after 48 hrs by SRB assay; assay type: functional, SF-268
[11] = Cytotoxicity against human BT549 cells assessed as growth inhibition at 10 uM after 48 hrs by SRB assay; assay type: functional; details: BT-549, 48 h, read-out: GI
[12] = tested on: 786-0; test: Cytotoxicity against human 786-0 cells assessed as growth inhibition at 10 uM after 48 hrs by SRB assay; assay type: functional; details: 786-0, 48 h, read-out: GI
[13] = Cytotoxicity against human TK10 cells assessed as growth inhibition at 10 uM after 48 hrs by SRB assay; assay type: functional; details: TK-10, 48 h, read-out: GI
[14] = tested on: NCI-H522; test: Cytotoxicity against human NCI-H522 cells assessed as growth level at 10 uM after 48 hrs by SRB assay; assay type: functional
[15] = Cytotoxicity against human SF539 cells assessed as growth level at 10 uM after 48 hrs by SRB assay; assay type: functional, SF-539
[16] = Cytotoxicity against human SKOV3 cells assessed as growth level at 10 uM after 48 hrs by SRB assay; assay type: functional, SK-OV-3
[17] = Cytotoxicity against human RPMI8226 cells assessed as growth level at 10 uM after 48 hrs by SRB assay; assay type: functional, RPMI-8226
[18] = tested on: M14; test: Cytotoxicity against human M14 cells assessed as growth inhibition at 10 uM after 48 hrs by SRB assay; assay type: functional; details: M14, 48 h, read-out: GI
[19] = Cytotoxicity against human OVCAR5 cells assessed as growth level at 10 uM after 48 hrs by SRB assay; assay type: functional, OVCAR-5
[20] = tested on: NCI-H522; test: Cytotoxicity against human NCI-H522 cells assessed as growth inhibition at 10 uM after 48 hrs by SRB assay; assay type: functional; details: NCI-H522, 48 h, read-out: GI
[21] = tested on: KM12; test: Cytotoxicity against human KM12 cells assessed as growth inhibition at 10 uM after 48 hrs by SRB assay; assay type: functional; details: KM12, 48 h, read-out: GI
[22] = Cytotoxicity against human LOXIMVI cells assessed as growth inhibition at 10 uM after 48 hrs by SRB assay; assay type: functional; details: LOX IMVI, read-out: GI
[23] = Cytotoxicity against human IGROV1 cells assessed as growth level at 10 uM after 48 hrs by SRB assay; assay type: functional, IGROV-1
[24] = tested on: SK-MEL-2; test: Cytotoxicity against human SK-MEL-2 cells assessed as growth inhibition at 10 uM after 48 hrs by SRB assay; assay type: functional; details: SK-MEL-2, 48 h, read-out: GI
[25] = Cytotoxicity against human HCT116 cells assessed as growth inhibition at 10 uM after 48 hrs by SRB assay; assay type: functional; details: HCT-116, 48 h, read-out: GI
[26] = (§1) Cytotoxicity against human OVCAR5 cells assessed as growth inhibition at 10 uM after 48 hrs by SRB assay; assay type: functional; details: OVCAR-5, 48 h, read-out: GI
[27] = tested on: K562; test: Cytotoxicity against human K562 cells assessed as growth level at 10 uM after 48 hrs by SRB assay; assay type: functional
[28] = tested on: MDA-MB-435; test: Cytotoxicity against human MDA-MB-435 cells assessed as growth level at 10 uM after 48 hrs by SRB assay; assay type: functional
[29] = tested on: MCF7; test: Cytotoxicity against human MCF7 cells assessed as growth level at 10 uM after 48 hrs by SRB assay; assay type: functional
[30] = Cytotoxicity against human UACC62 cells assessed as growth inhibition at 10 uM after 48 hrs by SRB assay; assay type: functional; details: UACC-62, 48 h, read-out: GI
[31] = tested on: OVCAR-5; test: as §1; assay type: functional

C=C1CC[C@@H]2[C@](C)(COC(C)=O)[C@H](OC(C)=O)CC[C@@]2(C)[C@@H]1CC(NCc1cccc(Cl)c1)C1=CCOC1=O (mixture of isomers) gave an Activity [1] of 50.51%, an inhibition of growth at 10 µM [2] of 53.7% and an Activity [3] of 47.44%. The inhibition of growth at 10 µM [4] was 57%, the inhibition of growth at 10 µM [5] was 35.9% and the Activity [6] was 63.29%. The Activity [7] was 37.72%, the Activity [8] was 34.79% and the Activity [9] was 25.21%. For the same compound, the Activity [10] was 53.28%, the inhibition of growth at 10 µM [11] was 50.3% and the inhibition of growth at 10 µM [12] was 38%. For the same compound, the inhibition of growth at 10 µM [13] was 36.7%, the Activity [14] was 52.45% and the Activity [15] was 74.12%. It also gave an Activity [16] of 73.11%, an Activity [17] of 27.25% and an inhibition of growth at 10 µM [18] of 45%. The Activity [19] was 99.69%, the inhibition of growth at 10 µM [20] was 47.5% and the inhibition of growth at 10 µM [21] was 53.2%. The inhibition of growth at 10 µM [22] was 87.3%, the Activity [23] was 64.14% and the inhibition of growth at 10 µM [24] was 32%. The inhibition of growth at 10 µM [25] was 64.1%, the inhibition of growth at 10 µM [26] was 0.31% and the Activity [27] was 18.48%. It also gave an Activity [28] of 51.65%, an Activity [29] of 42.95% and an inhibition of growth at 10 µM [30] of 58.8%.
C=C1CC[C@@H]2[C@](C)(COC(C)=O)[C@H](OC(C)=O)CC[C@@]2(C)[C@@H]1CC(NCc1ccc(F)cc1)C1=CCOC1=O (mixture of isomers) showed an Activity [1] of 80.59%, an inhibition of growth at 10 µM [2] of 59.9% and an Activity [3] of 23.7%. The inhibition of growth at 10 µM [4] was 83.4%, the inhibition of growth at 10 µM [5] was 51.6% and the Activity [6] was 66.64%. For the same compound, the Activity [7] was 37.04%, the Activity [8] was 55.22% and the Activity [9] was 45.84%. It also gave an Activity [10] of 62.59%, an inhibition of growth at 10 µM [11] of 71.3% and an inhibition of growth at 10 µM [12] of 13.2%. The inhibition of growth at 10 µM [13] was 33.4%, the Activity [14] was 20.93% and the Activity [15] was 64.45%. For the same compound, the Activity [16] was 94.32%, the Activity [17] was 1.27% and the inhibition of growth at 10 µM [18] was 62.7%. For the same compound, the Activity [19] was 99%, the inhibition of growth at 10 µM [20] was 79.1% and the inhibition of growth at 10 µM [21] was 53.5%. The inhibition of growth at 10 µM [22] was 90.7%, the Activity [23] was 48.35% and the inhibition of growth at 10 µM [24] was 26.8%. The inhibition of growth at 10 µM [25] was 66.3%, the inhibition of growth at 10 µM [26] was 1% and the Activity [27] was 18.84%. It also gave an Activity [28] of 32.73%, an Activity [29] of 16.58% and an inhibition of growth at 10 µM [30] of 67.8%.
For C=C1CC[C@@H]2[C@](C)(COC(C)=O)[C@H](OC(C)=O)CC[C@@]2(C)[C@@H]1CC(NCc1ccccc1)C1=CCOC1=O (mixture of isomers), the Activity [1] was 74.33%, the inhibition of growth at 10 µM [2] was 88.6% and the Activity [3] was 31.82%. It also gave an inhibition of growth at 10 µM [4] of 70.2%, an inhibition of growth at 10 µM [5] of 37.1% and an Activity [7] of 40.99%. For the same compound, the Activity [8] was 48.43%, the Activity [9] was 32.81% and the Activity [10] was 62.15%. It also gave an inhibition of growth at 10 µM [11] of 71.9%, an inhibition of growth at 10 µM [12] of 28.6% and an Activity [15] of 79.48%. For the same compound, the Activity [16] was 79.25%, the Activity [17] was 3.18% and the inhibition of growth at 10 µM [18] was 57.9%. It also gave an Activity [19] of 101.59%, an inhibition of growth at 10 µM [21] of 60.9% and an inhibition of growth at 10 µM [22] of 55.4%. The Activity [23] was 62.9%, the inhibition of growth at 10 µM [25] was 57.7% and the “growth inhibition (GI)” value [31] was “inactive”. It also gave an Activity [27] of 24.65%, an Activity [28] of 27.9% and an Activity [29] of 29.82%. For the same compound, the inhibition of growth at 10 µM [30] was 61.2%.
